Test results: US12696901B2, “Pesticidally active heterocyclic derivatives with sulfur containing substituents” (SYNGENTA CROP PROTECTION AG, priority 2020, dated 2026)

How the values were obtained:
Type in all cases: in vivo
[1] = system: Euschistus heros (Neotropical Brown Stink Bug); experiment: Activity against Euschistus heros (neotropical brown stink bug), sprayed soybean leaves; settings: 120 h, application rate 200 ppm, N2 nymphs, 5 days after infestation, read-out: effect in at least one of the two categories (mortality or growth inhibition)
Procedure: Example B3: Activity Against Euschistus heros (Neotropical Brown Stink Bug)
Soybean leaves on agar in 24-well microtiter plates were sprayed with aqueous test solutions prepared from 10,000 ppm DMSO stock solutions. After drying the leaves were infested with N2 nymphs. The samples were assessed for mortality and growth inhibition in comparison to untreated samples 5 days after infestation.

[2] = system: Plutella xylostella (Diamond Back Moth); experiment: Activity against Plutella xylostella (diamond back moth), treated artificial diet; settings: 192 h, application rate 200 ppm, eggs, 8 days after infestation, read-out: effect in at least one of the two categories (mortality or growth inhibition)
Procedure, shortened: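 Artificial diet treated with aqueous test solutions made from 10,000 ppm DMSO stocks, dried, then infested with Plutella eggs. Mortality and growth inhibition scored against untreated samples 8 days after infestation.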

[3] = system: Spodoptera littoralis (Egyptian Cotton Leaf Worm); experiment: Activity against Spodoptera littoralis (Egyptian cotton leaf worm), sprayed cotton leaf discs; settings: foliar, 72 h, application rate 200 ppm, L1 larvae, 3 days after infestation
Procedure, shortened: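 Leaf discs on agar were sprayed with aqueous solutions prepared from 10,000 ppm DMSO stock, dried, then infested with five L1 larvae. Mortality, anti-feeding and growth inhibition were scored against untreated discs 3 days after infestation. Control was recorded when any one category exceeded the untreated sample.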

[4] = system: Frankliniella occidentalis (Western Flower Thrips); experiment: Activity against Frankliniella occidentalis (western flower thrips), sprayed sunflower leaf discs; settings: foliar, 168 h, application rate 200 ppm, population of mixed ages, 7 days after infestation
Procedure: Example B4: Activity Against Frankliniella occidentalis (Western Flower Thrips)
(§1) Sunflower leaf discs were placed on agar in 24-well microtiter plates and sprayed with aqueous test solutions prepared from 10,000 ppm DMSO stock solutions. After drying the leaf discs were infested with a Frankliniella population of mixed ages. The samples were assessed for mortality 7 days after infestation.

[5] = system: Bemisia tabaci (Cotton White Fly); experiment: Activity against Bemisia tabaci (cotton white fly), sprayed cotton leaf discs; settings: foliar, 144 h, application rate 200 ppm, adult white flies, 6 days after incubation
Procedure: Example B1: Activity Against Bemisia tabaci (Cotton White Fly)
Cotton leaf discs were placed on agar in 24-well microtiter plates and sprayed with aqueous test solutions prepared from 10,000 ppm DMSO stock solutions. After drying the leaf discs were infested with adult white flies. The samples were checked for mortality 6 days after incubation.

[6] = system: Tetranychus urticae (Two-Spotted Spider Mite); experiment: Activity against Tetranychus urticae (two-spotted spider mite), sprayed bean leaf discs; settings: foliar, 192 h, application rate 200 ppm, mixed population (mobile stages), 8 days after infestation
Procedure: Example B9: Activity Against Tetranychus urticae (Two-Spotted Spider Mite)
as §1, with “Bean” for “Sunflower”, “discs” for “discs were placed”, “were” for “and”, “mite” for “Frankliniella”, “on mixed population (mobile stages) 8” for “7”

[7] = system: Diabrotica balteata (Corn Root Worm); experiment: Activity against Diabrotica balteata (corn root worm), sprayed maize sprouts on agar; settings: 96 h, application rate 200 ppm, L2 larvae, 4 days after infestation, read-out: effect in at least one of the two categories (mortality or growth inhibition)
Procedure: Example B2: Activity Against Diabrotica balteata (Corn Root Worm)
Maize sprouts placed onto an agar layer in 24-well microtiter plates were treated with aqueous test solutions prepared from 10,000 ppm DMSO stock solutions by spraying. After drying, the plates were infested with L2 larvae (6 to 10 per well). The samples were assessed for mortality and growth inhibition in comparison to untreated samples 4 days after infestation.

[8] = system: Chilo suppressalis (Striped Rice Stemborer); experiment: Activity against Chilo suppressalis (striped rice stemborer), treated artificial diet; settings: 144 h, application rate 200 ppm, L2 larvae, 6 days after infestation
Procedure, shortened: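 Artificial diet treated with aqueous test solutions made from 10,000 ppm DMSO stocks, dried, then infested with L2 larvae, 6-8 per well. Mortality, anti-feeding effect and growth inhibition scored versus untreated samples 6 days after infestation; control counted when any one category exceeds the untreated sample.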

[9] = system: Myzus persicae (Green Peach Aphid); experiment: Activity against Myzus persicae (green peach aphid), feeding/contact activity; settings: 144 h, application rate 200 ppm, mixed ages, 6 days after infestation
Procedure: Example B6: Activity Against Myzus persicae (Green Peach Aphid) Feeding/Contact Activity
Sunflower leaf discs were placed onto agar in a 24-well microtiter plate and sprayed with aqueous test solutions prepared from 10,000 ppm DMSO stock solutions. After drying, the leaf discs were infested with an aphid population of mixed ages. The samples were assessed for mortality 6 days after infestation.

[10] = system: Carpocapsa (Cydia) Pomonella (Codling Moth); experiment: Activity against Carpocapsa (Cydia) pomonella (codling moth), sprayed diet cubes; settings: 336 h, application rate 12.5 ppm, L1 larvae, 14 days after infestation, read-out: effect in at least one of the two categories (mortality or growth inhibition)
Procedure, shortened: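 Paraffin-coated diet cubes were sprayed with test solutions at 12.5 ppm, dried, and infested with one L1 larva each (10 replicates). After incubation at 26–27 °C, mortality and growth inhibition were scored 14 days after infestation.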

[11] = system: Diabrotica balteata (Corn Root Worm); experiment: Activity against Diabrotica balteata (corn root worm), corn seedlings on filter paper in cups; settings: 120 h, application rate 3 ppm, L2 larva, 5 days after treatment, read-out: effect in at least one of the two categories (mortality or growth inhibition)
Procedure: Example B12: Activity Against Diabrotica Balteata (Corn Root Worm)
Three corn seedlings were placed on wetted filter paper in plastic cups, and 3 ml of diluted test solutions were pipetted onto them. The cups were infested with 10 L2 larva and checked for mortality and growth regulation 5 days after treatment.

[12] = system: Myzus persicae (Green Peach Aphid); experiment: Activity against Myzus persicae (green peach aphid), systemic activity; settings: 144 h, test rate 24 ppm, roots of pea seedlings in test solution, 6 days
Procedure: Example B8: Activity Against Myzus persicae (Green Peach Aphid) Systemic Activity
Roots of pea seedlings infested with an aphid population of mixed ages were placed directly into aqueous test solutions prepared from 10,000 ppm DMSO stock solutions. The samples were assessed for mortality 6 days after placing seedlings into test solutions.

CCS(=O)(=O)c1c(N2Cc3ncc(C(F)(F)F)cc3C2=O)nc2ccc(OC(F)F)cn12 [Compound P10, 6-[6-(difluoromethoxy)-3-ethylsulfonyl-imidazo[1,2-a]pyridin-2-yl]-3-(trifluoromethyl)-7H-pyrrolo[3,4-b]pyridin-5-one]
≥ 80%: percent effect (mortality or growth inhibition) at 200 ppm [1] | percent effect (mortality or growth inhibition) at 200 ppm [2] | percent control (mortality, anti-feedant effect or growth inhibition) at 200 ppm [3] | mortality at 200 ppm [4] | mortality at 200 ppm [5] | mortality at 200 ppm [6] | percent effect (mortality or growth inhibition) at 200 ppm [7] | percent control (mortality, anti-feedant effect or growth inhibition) at 200 ppm [8] | mortality at 200 ppm [9] | percent effect (mortality or growth inhibition) at 12.5 ppm [10] | percent effect (mortality or growth inhibition) at 3 ppm [11]

CCS(=O)(=O)c1c(N2Cc3ncc(C(F)(F)F)cc3C2=O)nc2cc(OC)ccn12 [Compound P13, 6-(3-ethylsulfonyl-7-methoxy-imidazo [1,2-a]pyridin-2-yl)-3-(trifluoromethyl)-7H-pyrrolo[3,4-b] pyridin-5-one]
≥ 80%: percent effect (mortality or growth inhibition) at 200 ppm [2] | percent control (mortality, anti-feedant effect or growth inhibition) at 200 ppm [3] | percent effect (mortality or growth inhibition) at 200 ppm [7] | mortality at 200 ppm [9] | mortality at 24 ppm [12]

CCS(=O)(=O)c1c(N2Cc3ccc(OC(F)(F)F)cc3C2=O)nc2ccc(C(C)(F)F)cn12 [Compound P17, 2-[6-(1,1-difluoroethyl)-3-ethylsulfonyl-imidazo[1,2-a]pyridin-2-yl]-6-(trifluoromethoxy) isoindolin-1-one]
≥ 80%: percent effect (mortality or growth inhibition) at 200 ppm [1] | percent effect (mortality or growth inhibition) at 200 ppm [2] | percent control (mortality, anti-feedant effect or growth inhibition) at 200 ppm [3] | mortality at 200 ppm [4] | mortality at 200 ppm [5] | mortality at 200 ppm [6] | percent effect (mortality or growth inhibition) at 200 ppm [7] | percent control (mortality, anti-feedant effect or growth inhibition) at 200 ppm [8] | mortality at 200 ppm [9] | percent effect (mortality or growth inhibition) at 12.5 ppm [10] | percent effect (mortality or growth inhibition) at 3 ppm [11]

CCS(=O)(=O)c1c(N2Cc3ncc(C(F)(F)F)cc3C2=O)nc2cc(C)ccn12 [Compound P23, 6-(3-ethylsulfonyl-7-methyl-imidazo[1,2-a]pyridin-2-yl)-3-(trifluoromethyl)-7H-pyrrolo[3,4-b]pyridin-5-one]
≥ 80%: percent effect (mortality or growth inhibition) at 200 ppm [2] | percent control (mortality, anti-feedant effect or growth inhibition) at 200 ppm [3] | percent effect (mortality or growth inhibition) at 200 ppm [7] | percent control (mortality, anti-feedant effect or growth inhibition) at 200 ppm [8] | mortality at 200 ppm [9] | mortality at 24 ppm [12]

CCS(=O)(=O)c1c(N2Cc3ncc(C(F)(F)F)cc3C2=O)nc2ccc(C(C)(C)C#N)cn12 [Compound P35, 2-[3-ethylsulfonyl-2-[5-oxo-3-(trifluoromethyl)-7H-pyrrolo[3,4-b]pyridin-6-yl]imidazo[1,2-a]pyridin-6-yl]-2-methyl-propanenitrile]
≥ 80%: percent effect (mortality or growth inhibition) at 200 ppm [1] | percent effect (mortality or growth inhibition) at 200 ppm [2] | percent control (mortality, anti-feedant effect or growth inhibition) at 200 ppm [3] | mortality at 200 ppm [4] | mortality at 200 ppm [5] | mortality at 200 ppm [6] | percent effect (mortality or growth inhibition) at 200 ppm [7] | percent control (mortality, anti-feedant effect or growth inhibition) at 200 ppm [8] | mortality at 200 ppm [9] | percent effect (mortality or growth inhibition) at 12.5 ppm [10] | percent effect (mortality or growth inhibition) at 3 ppm [11]

CCS(=O)(=O)c1c(N2Cc3ncc(C(F)(F)F)cc3C2=O)nc2ccc(NC(C)=O)cn12 [Compound P36, N-[3-ethylsulfonyl-2-[5-oxo-3-(trifluoromethyl)-7H-pyrrolo[3,4-b]pyridin-6-yl]imidazo[1,2-a]pyridin-6-yl]acetamide]
≥ 80%: percent effect (mortality or growth inhibition) at 200 ppm [2] | percent control (mortality, anti-feedant effect or growth inhibition) at 200 ppm [3] | percent effect (mortality or growth inhibition) at 200 ppm [7] | percent control (mortality, anti-feedant effect or growth inhibition) at 200 ppm [8] | mortality at 200 ppm [9] | mortality at 24 ppm [12]
